Measurements as given in US20250326748A1, “COMPOUNDS AND METHODS FOR MODULATING SPLICING” (REMIX THERAPEUTICS INC., priority 2022, published 2025).

Legend:
Type in all cases: cell-based, human
SMN2 mRNA = assay: Splicing RT-qPCR panel, SMN2 canonical junction (CJ) mRNA; conditions: Homo sapiens, read-out: SMN2 CJ (decrease in CJ mRNA levels, IC50)
In short: (§1)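 A673 cells (DMEM, 10% FBS) or K562 cells (IMDM, 10% FBS) treated 24 h at 37 °C with an 11-point 3-fold dilution, top 10 uM, DMSO ≤0.25%. Canonical-junction mRNA quantified in lysates by RT-qPCR, normalised to GAPDH, GUSB or PPIA and to DMSO (2^−ΔΔCt), then converted to % response.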

Target C mRNA = assay: Splicing RT-qPCR panel, Target C canonical junction (CJ) mRNA; conditions: Homo sapiens, read-out: Target C CJ (decrease in CJ mRNA levels, IC50)
In short: as §1

HiBiT-tagged HTT protein = assay: HiBiT protein abundance assay, HTT (K562 HiBiT knock-in); conditions: HiBiT knock-in cells, 24 hours
Experimental: Compounds described herein were used to screen for effects on quantitative protein abundance using a HiBit assay system (Promega). Quantitative protein abundance was determined by measuring the protein levels of HiBit-tagged protein targets expressed in cell culture via luminescence using the Nano-Glo HiBiT Lytic Detection System, which uses a split complementation assay format to reconstitute NanoBiT enzyme to generate a luminescent signal. A protein abundance assay was developed such that endogenous protein targets could be modified with the HiBiT peptide tag and their abundance could be assessed after compound treatment. Briefly, K562 cell lines containing a HiBiT-modification were treated with various compounds described herein (e.g., compounds of Formulas (I), or (II)). After treatment for 24 hours, the protein abundance of a specific target was determined by measuring luminescence.
• Promega Nano-Glo HiBiT Lytic Detection System (cat #N3030) • Corning 384-well TC-treated microplates (cat #3570)
Cells were maintained in IMDM with 10% FBS. Before the assay, cells were diluted with […] growth media (IMDM+1% FBS media) and were seeded in a 384-well plate at a density of 10000 cells/well (for each cell line listed in Table 6). Each compound was prepared as a 10-point 3-old serial dilution in DMSO with the top dose at a final concentration of 10 μM in the well. Unmodified K562 cells were added at the previously specified density with DMSO to serve as an assay baseline and positive control (PC) and DMSO only with the respective modified cell lines was added to the negative control (NC) columns. Final DMSO concentration was kept at or below 0.25%. Treated cell plates were placed in an incubator at 37° C. with 5% CO2 for 24 hours. After 24 hours, 25 μL of Complete HiBit Lytic reagent was added to each well at room temperature (e.g. one plate requiring 10 ml Lytic Buffer, 100 μL LgBiT Protein, 200 μL Lytic Substrate), shaken for 5 minutes at 600 RPM, then left to sit for 10 minutes for signal to stabilize before reading on a Spark Cyto plate reader (Tecan) with a 500 ms measurement time.
To determine compound effects on protein abundance of each target in Table 6, the percent response for each respective cell line was calculated at each compound concentration as follows:
For the normalized response at each concentration, a four-parameter logistical regression was fit to the data and the response was interpolated at the 50% value to determine a concentration for protein abundance at 50% (IC50) the untreated control.

Compound | IC50 (SMN2 mRNA) [µM] | IC50 (Target C mRNA) [µM] | IC50 (HiBiT-tagged HTT protein) [µM]
Cc1cn2nc(-c3cc(Cl)c4cc(N5CCC(N6CCC6)CC5)cnc4n3)cc(C)c2n1 [Compound 349] | < 0.1 | 0.1 to 1 | 0.1 to 1
Cc1cn2nc(-c3ccc4cc(N5C[C@@H](C)N[C@@H](C)C5)cnc4n3)cc(C)c2n1 [Compound 330] | < 0.1 | 0.1 to 1 | 0.1 to 1
C[C@@H]1CN(c2cnc3nc(-c4cc5cn(C)nc5c(F)c4O)cc(C4CC4)c3c2)C[C@H](C)N1 [Compound 305, 5-{4-cyclopropyl-6-[(3R,5S)-3,5-dimethylpiperazin-1-yl]-1,8-naphthyridin-2-yl}-7-fluoro-2-methylindazol-6-ol] | < 0.1 | > 10 | 1 to 10
C[C@@H]1CN(c2cnc3nc(-c4cc(F)c5nn(C)cc5c4)cc(Cl)c3c2)CCN1 [Compound 295, 4-chloro-2-(7-fluoro-2-methylindazol-5-yl)-6-[(3R)-3-methylpiperazin-1-yl]-1,8-naphthyridine] | < 0.1 | 1 to 10 | 0.1 to 1
C[C@@H]1CN(c2cnc3nc(-c4cc5cn(C)nc5cc4O)ccc3c2)C[C@H](C)N1 [Compound 343] | < 0.1 | 1 to 10 | 1 to 10
CN(c1cnc2nc(-c3cc4cn(C)nc4c(F)c3O)cc(Cl)c2c1)[C@H]1CCNC1 [Compound 275] | < 0.1 | 1 to 10 | 0.1 to 1
Cc1c(O)c(-c2cc(Cl)c3cc(N(C)[C@@H]4CCNC4)cnc3n2)cc2cn(C)nc12.Cl [Compound 293] | < 0.1 | 1 to 10 | 0.1 to 1

Further lines, results first:

IC50 (SMN2 mRNA) [µM] | IC50 (Target C mRNA) [µM] | IC50 (HiBiT-tagged HTT protein) [µM] | Compound
< 0.1 | 1 to 10 | 1 to 10 | C[C@H]1CN(c2cnc3nc(-c4cc(F)c5nn(C)cc5c4)cc(Cl)c3c2)C[C@@H](C2CC2)N1 [Compound 288]
< 0.1 | > 10 | 1 to 10 | C[C@@H]1CN(c2cnc3nc(-c4ccc5nn(C)cc5c4)cc(Cl)c3c2)C[C@H](C)N1 [Compound 320, 4-chloro-6-[(3R,5S)-3,5-dimethylpiperazin-1-yl]-2-(2-methylindazol-5-yl)-1,8-naphthyridine]
< 0.1 | 1 to 10 | 0.1 to 1 | Cc1c(O)c(-c2ccc3c(Cl)c(N4CCNCC4)cnc3n2)cc2cn(C)nc12 [Compound 278, 5-[5-chloro-6-(piperazin-1-yl)-1,8-naphthyridin-2-yl]-2,7-dimethylindazol-6-ol]
< 0.1 | 1 to 10 | 0.1 to 1 | CN[C@@H]1CN(c2cnc3nc(-c4cc5cn(C)nc5c(C)c4O)ccc3c2)C[C@H]1C [Compound 126, 2,7-dimethyl-5-{6-[(3R,4S)-3-methyl-4-(methylamino)382pyrrolidine-1-yl]-1,8-naphthyridin-2-yl}indazol-6-ol]
< 0.1 | 1 to 10 | 0.1 to 1 | Cc1cn2nc(-c3cc(Cl)c4cc(N5C[C@@H](C)N[C@@H](C)C5)cnc4n3)cc(C)c2n1 [Compound 335, 4-chloro-2-{2,8-dimethylimidazo[1,2-b]478pyridazine-6-yl}-6-[(3R,5S)-3,5-dimethylpiperazin-1-yl]-1,8-naphthyridine]
< 0.1 | 0.1 to 1 | 0.1 to 1 | Cn1cc2cc(-c3ccc4cc(N5CC[C@@H](NCC6CC6)C5)cnc4n3)c(O)cc2n1 [Compound 313]
< 0.1 | 0.1 to 1 | 0.1 to 1 | CN[C@H]1CN(c2cnc3nc(-c4cc5cn(C)nc5c(C)c4O)ccc3c2)C[C@H]1F [Compound 129, 5-{6-[(3R,4S)-3-fluoro-4-(methylamino)pyrrolidin-1-yl]-1,8-naphthyridin-2-yl}-2,7-dimethylindazol-6-ol]
< 0.1 | 0.1 to 1 | < 0.1 | C[C@@H]1CN(c2cnc3nc(-c4cc5cn(C)nc5c(F)c4O)cc(Cl)c3c2)C[C@@H](C)N1 [Compound 281]
< 0.1 | 1 to 10 | 0.1 to 1 | Cc1c(O)c(-c2cc(Cl)c3cc(N4CCNC(C)C4)cnc3n2)cc2cn(C)nc12 (stereo not drawn) [Compound 147]
